In patent US10285400B2, “Disinfectant composition containing quaternary ammonium compounds” (LONZA, INC., priority 2014, dated 2019):

What was measured:
[1] = system: Staphylococcus aureus (Sa); assay: OECD Quantitative Method for Evaluating Bacterial Activity of Microbiocides Used on Hard Non-Porous Surfaces; assay type: cell-based; conditions: diluted with 375 ppm hard water, test concentration as in test composition
From the text: (§1) Bardac 2250, containing of 50% didecyldimethylammonium chloride and 10% ethanol from Lonza, was used for the formulations.

[2] = system: Pseudomonas aeruginosa (Pa); assay: as above; assay type: cell-based; conditions: diluted with 375 ppm hard water, test concentration as in test composition
From the text: as §1

Row | Structure (SMILES) | # Log Reduc. 5 min contact Sa [1] | # Log Reduc. 5 min contact Pa [2]
1 | CCCCCCCCCC[N+](C)(C)CCCCCCCCCC.[Cl-] [Bardac 22, didecyldimethylammonium chloride] | ineffective | ineffective
2 | OO [Sample 2, hydrogen peroxide] | 3.2 Log | 1.8 Log
3 | CCCCCCCCCC[N+](C)(C)CCCCCCCCCC.[Cl-] [Sample 3, didecyldimethylammonium chloride] | – | 3.3 Log
4 | OO [Sample 1, hydrogen peroxide] | 0.3 Log | 1.6 Log
5 | OO [hydrogen peroxide] | ineffective | ineffective
